Laboratory results as given in patent publication US6303630A, “Diarylsulfone non-nucleoside reverse transcriptase inhibitors of human immunodeficiency virus” (University of the Sciences in Philadelphia, priority 2000, dated 2001).
Where two headings read alike, the source gives them in different places.

Legend:
[1] = system: T4 lymphocytes (CEM cell line); experiment: Cell growth / toxicity control in uninfected T4 lymphocytes (CEM), XTT-formazan; assay type: cell-based; conditions: Homo sapiens, CCRF-CEM; for IC50: 144 h, uninfected CEM cells, 6 days, XTT, approximate values, read-out: IC50 (50% inhibitory concentration for cell growth); for activity at 200 µM: dose 2.00 × 10^-4 Molar; for activity at 200 µM / activity at 20 µM / activity at 2 µM / activity at 0.2 µM / activity at 63.2 µM / activity at 6.33 µM / activity at 0.634 µM / activity at 0.0635 µM: read-out: Percent of Control, Uninfected; for activity at 20 µM: dose 2.00 × 10^-5 Molar; for activity at 2 µM: dose 2.00 × 10^-6 Molar; for activity at 0.2 µM: dose 2.00 × 10^-7 Molar; for activity at 63.2 µM: dose 6.32 × 10^-5 Molar; for activity at 6.33 µM: dose 6.33 × 10^-6 Molar; for activity at 0.634 µM: dose 6.34 × 10^-7 Molar; for activity at 0.0635 µM: dose 6.35 × 10^-8 Molar
Text: (§1) The NCI procedure is fully described, for example, in a bulletin provided by the National Institutes of Health, National Cancer Institute, Bethesda, Md. 20892, all of which is incorporated herein by reference. As related in the NCI bulletin, the procedure is based on O. W. Weislow et al., "New soluble-formazan assay for HIV-1 cytopathic effects: application to high flux screening of synthetic and natural products for AIDS-antiviral activity", J. Natl. Cancer Inst. 81:577-586 (1989), and is used to test for compounds active against human immunodeficiency virus (HIV), and is designed to detect compounds active at any stage of the virus reproductive cycle. As further related in the NCI bulletin, the assay includes killing of T4 lymphocytes by HIV. Amounts of HIV are added to cells, with a minimum of two cycles of virus reproduction found to be necessary to obtain the required cell killing. Compounds that interact with virions, cells, or virus gene-products to interfere with viral activities will protect cells from cytolysis. All were compared with a positive (e.g., AZT-treated) control evaluation at the same time under identical conditions. The procedure is set forth as follows:
(§2) A candidate compound is first dissolved in a suitable solvent, preferably dimethyl sulfoxide, then diluted 1:100 in cell culture medium before preparing serial half-log10 dilutions. T4 lymphocytes (CEM cell line) are then added and after a brief interval HIV-1 is added, resulting in a 1:200 final dilution of the compound. Uninfected cells with the compound serve as a toxicity control, and infected and uninfected without the compound serve as basic controls. Cultures are then incubated at 37° in a 5% carbon dioxide atmosphere for 6 days. The tetrazolium salt, XTT, is added to all wells, and cultures are incubated to allow formazan color development by viable cells. Individual wells are analyzed spectrophotometrically to quantitate formazan product, and in addition are viewed microscopically for detection of viable cells and confirmation of protective activity. Drug-treated virus-infected cells are compared with drug-treated noninfected cells and with other appropriate controls (untreated infected and untreated noninfected cells, drug-containing wells without cells, etc.) on the same plate. Data are reviewed in comparison with other tests performed at the same time and a determination as to activity is made.

HIV-1 = experiment: NCI in vitro anti-HIV drug screen: XTT-formazan assay, protection of T4 lymphocytes (CEM) from HIV-1 cytopathic effects; assay type: cell-based, human immunodeficiency virus (HIV-1); conditions: for EC50 / inhibition at 200 µM / inhibition at 20 µM / inhibition at 2 µM / inhibition at 0.2 µM / inhibition at 63.2 µM / inhibition at 6.33 µM / inhibition at 0.634 µM / inhibition at 0.0635 µM: Human immunodeficiency virus 1, CCRF-CEM; for EC50: 144 h, HIV-1 infected CEM cells, 6 days, XTT, approximate values, read-out: EC50 (50% effective concentration against HIV cytopathic effects); for inhibition at 200 µM / activity at 200 µM: dose 2.00 × 10^-4 Molar; for inhibition at 20 µM / activity at 20 µM: dose 2.00 × 10^-5 Molar; for inhibition at 2 µM / activity at 2 µM: dose 2.00 × 10^-6 Molar; for inhibition at 0.2 µM / activity at 0.2 µM: dose 2.00 × 10^-7 Molar; for inhibition at 63.2 µM / activity at 63.2 µM: dose 6.32 × 10^-5 Molar; for inhibition at 6.33 µM / activity at 6.33 µM: dose 6.33 × 10^-6 Molar; for inhibition at 0.0635 µM / activity at 0.0635 µM: dose 6.35 × 10^-8 Molar; for activity at 200 µM / activity at 20 µM / activity at 2 µM / activity at 0.2 µM / activity at 63.2 µM / activity at 6.33 µM / activity at 0.634 µM / activity at 0.0635 µM: Human immunodeficiency virus 1, Lymphocyte, read-out: Percent of Control, Infected; for TI50 (IC/EC), Therapeutic Index: IC50/EC50
Description: Compounds of the present invention were evaluated for anti-HIV efficacy by the National Cancer Institute's (NCI) In Vitro Anti AIDS Drug Discovery Program.
as §1, §2

[2] = read-out: Percent of Protection

| Compound | IC50 [1] | activity at 200 µM [1] | activity at 20 µM [1] | activity at 2 µM [1] | activity at 0.2 µM [1] | activity at 63.2 µM [1] | activity at 6.33 µM [1] | activity at 0.634 µM [1] | activity at 0.0635 µM [1] | EC50 (HIV-1) | inhibition at 200 µM (HIV-1; [2]) | inhibition at 20 µM (HIV-1; [2]) | inhibition at 2 µM (HIV-1; [2]) | inhibition at 0.2 µM (HIV-1; [2]) | inhibition at 63.2 µM (HIV-1; [2]) | inhibition at 6.33 µM (HIV-1; [2]) | inhibition at 0.0635 µM (HIV-1; [2]) | activity at 200 µM (HIV-1) | activity at 20 µM (HIV-1) | activity at 2 µM (HIV-1) | other results |
| --- | --- | --- | --- | --- | --- | --- | --- | --- | --- | --- | --- | --- | --- | --- | --- | --- | --- | --- | --- | --- | --- |
| CNc1ccccc1S(=O)(=O)c1ccc(Cl)cc1OC [Compound 86, 2-(4-chloro-2-methoxyphenylsulfonyl)-N-methylaniline] | > 200 µM | 83.9% | 88.3% | 96.5% | 91.7% | 95.9% | 94.8% | 97.1% | 95.8% | 106 µM | 78.8% | 5.32% | 0.36% | 1.18% | 27.1% | 1.52% | 0.03% | 79.2% | 7.21% | 2.35% | inhibition at 0.634 µM (HIV-1; dose 6.34 × 10^-7 Molar, read-out: Percent of Protection): 1.22%; activity at 0.2 µM (HIV-1): 3.16%; activity at 63.2 µM (HIV-1): 28.5%; activity at 6.33 µM (HIV-1): 3.49%; activity at 0.634 µM (HIV-1; dose 6.34 × 10^-7 Molar): 3.2%; activity at 0.0635 µM (HIV-1): 2.03%; TI50 (IC/EC), Therapeutic Index (HIV-1): > 1.88 × 10^0 |
| CNc1ccc(S(=O)(=O)c2ccccc2[N+](=O)[O-])cc1C [Compound 79, 4-(2-nitrophenyisulfonyl)-N,2-dimethylaniline] | 32.7 µM | 11.9% | 76.9% | 94% | 97.1% | 13.9% | 98.2% | 93% | 107% | 0.183 µM | 10.7% | 78.6% | 97% | 53.9% | 10.1% | 103% | 7.87% | 15.2% | 79.7% | 97.2% | inhibition at 0.634 µM (HIV-1; read-out: Percent of Protection, dose 6.34 × 10^-7 Molar): 65%; activity at 0.2 µM (HIV-1): 56.2%; activity at 63.2 µM (HIV-1): 14.6%; activity at 6.33 µM (HIV-1): 103%; activity at 0.634 µM (HIV-1; dose 6.34 × 10^-7 Molar): 66.8%; activity at 0.0635 µM (HIV-1): 12.5%; TI50 (IC/EC), Therapeutic Index (HIV-1): 1.79 × 10^-2 |
